This note sets out measurements from patent US9682925B2, “Cyclopropaneamine compound” (TAKEDA PHARMACEUTICAL COMPANY LIMITED, priority 2011, dated 2017).

Structures are written as SMILES.

Common to all, as to assay type: biochemical
One assay addresses T1, human LSD1(171-852) (Homo sapiens, UniProt O60341).
T1 construct: to give hLSD1(171-852) purified product; made in house; host or cells: Escherichia coli C43(DE3) pLysS
The assay is described as follows: Measurement of LSD1 inhibitory activity (time-resolved fluorescence, biotin-histone H3 mono methylated K4 peptide). Conditions: read-out: LSD1 IC50 value.

The target of the next assay is T2, MAO-B (Homo sapiens, UniProt P27338).
T2 construct: purchased Sigma-Aldrich Co. LLC
T2 sequence (P27338 1-520): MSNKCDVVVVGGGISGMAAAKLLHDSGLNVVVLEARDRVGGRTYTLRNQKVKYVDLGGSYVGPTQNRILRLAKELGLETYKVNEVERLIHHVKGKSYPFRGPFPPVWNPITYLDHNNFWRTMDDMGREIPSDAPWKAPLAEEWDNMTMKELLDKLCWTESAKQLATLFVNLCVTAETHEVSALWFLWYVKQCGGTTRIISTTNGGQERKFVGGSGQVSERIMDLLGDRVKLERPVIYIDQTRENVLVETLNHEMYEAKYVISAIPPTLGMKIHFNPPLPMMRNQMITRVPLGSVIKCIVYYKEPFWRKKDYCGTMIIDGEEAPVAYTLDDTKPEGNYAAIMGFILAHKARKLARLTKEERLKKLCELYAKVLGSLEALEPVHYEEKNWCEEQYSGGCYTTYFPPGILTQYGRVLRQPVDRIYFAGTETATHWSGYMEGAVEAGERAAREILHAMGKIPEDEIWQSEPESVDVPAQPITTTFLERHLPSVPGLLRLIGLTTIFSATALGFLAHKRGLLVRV
Briefly: Measurement of MAO-B inhibitory activity (MAO-Glo Assay). The essentials:
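Percent inhibition was calculated from luciferin-based luminescence, corrected with a blank lacking enzyme and a control lacking compound. The reaction ran 60 min at room temperature after adding MAO substrate (16 µM as added). This followed a 10 min compound–enzyme preincubation in HEPES pH 7.5 buffer.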

Another assay has as its target T3, MAO-A (Homo sapiens, UniProt P21397).
T3 construct: purchased Sigma-Aldrich Co. LLC
T3 sequence (P21397 1-527): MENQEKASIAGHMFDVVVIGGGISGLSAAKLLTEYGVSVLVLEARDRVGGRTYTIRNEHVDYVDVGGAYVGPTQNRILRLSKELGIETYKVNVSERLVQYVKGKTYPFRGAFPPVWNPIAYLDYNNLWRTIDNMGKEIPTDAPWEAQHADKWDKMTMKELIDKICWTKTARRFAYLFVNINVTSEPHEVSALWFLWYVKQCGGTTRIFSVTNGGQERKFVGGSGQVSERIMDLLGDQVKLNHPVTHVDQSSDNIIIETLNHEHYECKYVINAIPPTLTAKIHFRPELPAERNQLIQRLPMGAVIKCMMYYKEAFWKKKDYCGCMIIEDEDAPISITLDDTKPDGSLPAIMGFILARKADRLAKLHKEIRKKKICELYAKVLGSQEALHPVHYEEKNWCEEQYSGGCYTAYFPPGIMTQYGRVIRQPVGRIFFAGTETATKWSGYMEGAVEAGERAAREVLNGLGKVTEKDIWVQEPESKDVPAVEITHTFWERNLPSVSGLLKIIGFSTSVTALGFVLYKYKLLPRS
Briefly: Measurement of MAO-A inhibitory activity (MAO-Glo Assay). The essentials:
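MAO-A (400 ng) was pre-incubated with compound 10 min at room temperature in 100 mM HEPES pH 7.5, 5% glycerol, then MAO substrate (160 μM stock) added for 60 min. Luciferin detection reagent, 20 min, luminescence; % inhibition against no-compound control minus no-enzyme blank.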

Take `O=C(Nc1ccc([C@@H]2C[C@H]2NCC2CC2)cc1)c1ccc2cc[nH]c2c1` (relative stereo) [Example 115, N-(4-{trans-2-[(cyclopropylmethyl)amino]cyclopropyl}-phenyl)-1H-indole-6-carboxamide]: the IC50 was less than 0.1 µM on human LSD1(171-852), greater than 10 µM against MAO-B and greater than 10 µM against MAO-A.
As to `CCCc1ccc(-c2ccc(C(=O)Nc3ccc([C@@H]4C[C@H]4NCC4CC4)cc3)cc2)cc1` (relative stereo) [Example 116, N-(4-{trans-2-[(cyclopropylmethyl)amino]cyclopropyl}-phenyl)-4′-propylbiphenyl-4-carboxamide], the figures for the IC50 on human LSD1(171-852), against MAO-B and against MAO-A were 1.8 µM, greater than 10 µM and greater than 10 µM, respectively.
On to `O=C(Nc1ccc([C@@H]2C[C@H]2NCC2CC2)cc1)c1ccc(-n2cccc2)cc1` (relative stereo) [Example 117, N-(4-{trans-2-[(cyclopropylmethyl)amino]cyclopropyl}-phenyl)-4-(1H-pyrrol-1-yl)benzamide], for which the IC50 is less than 0.1 µM on human LSD1(171-852), greater than 10 µM against MAO-B and 7.5 µM against MAO-A.
For `Cc1ccc(-c2ccc(C(=O)Nc3ccc([C@@H]4C[C@H]4NCC4CC4)cc3)cc2)cc1` (relative stereo) [Example 118, N-(4-{trans-2-[(cyclopropylmethyl)amino]cyclopropyl}-phenyl)-4′-methylbiphenyl-4-carboxamide], the IC50 on human LSD1(171-852) was 0.1 µM; against MAO-B, greater than 10 µM; on MAO-A, greater than 10 µM.
On to `O=C(Nc1ccc([C@@H]2C[C@H]2NCC2CC2)cc1)c1ccc(-c2csnn2)cc1` (relative stereo) [Example 119, N-(4-{trans-2-[(cyclopropylmethyl)amino]cyclopropyl}-phenyl)-4-(1,2,3-thiadiazol-4-yl)benzamide], for which the IC50 at human LSD1(171-852) is less than 0.1 µM; on MAO-B, greater than 10 µM; against MAO-A, 0.1 µM.
As for `CC(C)(C)c1ccc(-c2ccc(C(=O)Nc3ccc([C@@H]4C[C@H]4NCC4CC4)cc3)cc2)cc1` (relative stereo) [Example 120, 4′-tert-butyl-N-(4-{trans-2-[(cyclopropylmethyl)amino]cyclopropyl}-phenyl)biphenyl-4-carboxamide], the IC50 at human LSD1(171-852) was 1.6 µM; against MAO-B it was greater than 10 µM; against MAO-A it was greater than 10 µM.
With `Cc1c(C(=O)Nc2ccc([C@@H]3C[C@H]3NCC3CC3)cc2)cnn1-c1ccccc1` (relative stereo) [Example 121, N-(4-{trans-2-[(cyclopropylmethyl)amino]cyclopropyl}-phenyl)-5-methyl-1-phenyl-1H-pyrazole-4-carboxamide], the IC50 on human LSD1(171-852) was less than 0.1 µM; at MAO-B, greater than 10 µM; against MAO-A, greater than 10 µM.
For the molecule `Cc1oc(-c2ccccc2)nc1C(=O)Nc1ccc([C@@H]2C[C@H]2NCC2CC2)cc1` (relative stereo) [Example 122, N-(4-{trans-2-[(cyclopropylmethyl)amino]cyclopropyl}-phenyl)-5-methyl-2-phenyl-1,3-oxazole-4-carboxamide], the IC50 on human LSD1(171-852) was less than 0.1 µM; against MAO-B, greater than 10 µM; on MAO-A, greater than 10 µM.
As to `O=C(Nc1ccc([C@@H]2C[C@H]2NCC2CC2)cc1)c1ccc(-c2ccccc2)o1` (relative stereo) [Example 123, N-(4-{trans-2-[(cyclopropyl-methyl)amino]cyclo-propyl}phenyl)-5-phenyl-2-furamide], the IC50 is less than 0.1 µM at human LSD1(171-852), greater than 10 µM against MAO-B and 5 µM against MAO-A.
Consider `O=C(Nc1ccc([C@@H]2C[C@H]2NCC2CC2)cc1)c1cnn(-c2ccccc2)c1` (relative stereo) [Example 124, N-(4-{trans-2-[(cyclopropyl-methyl)amino]cyclo-propyl}phenyl)-1-phenyl-1H-pyrazole-4-carboxamide], for which the IC50 on human LSD1(171-852) was less than 0.1 µM; at MAO-B it was greater than 10 µM; on MAO-A, greater than 10 µM.
`O=C(Nc1ccc([C@@H]2C[C@H]2NCC2CC2)cc1)c1nc(-c2ccccc2)cs1` (relative stereo) [Example 125, N-(4-{trans-2-[(cyclopropyl-methyl)amino]cyclo-propyl}phenyl)-4-phenyl-1,3-thiazole-2-carboxamide]: the IC50 at human LSD1(171-852) is less than 0.1 µM; at MAO-B, greater than 10 µM; against MAO-A it was 2.5 µM.
Consider `O=C(Nc1ccc([C@@H]2C[C@H]2NCC2CC2)cc1)c1cc(-c2ccccc2)[nH]n1` (relative stereo) [Example 126, N-(4-{trans-2-[(cyclopropyl-methyl)amino]cyclo-propyl}phenyl)-5-phenyl-1H-pyrazole-3-carboxamide], for which the IC50 was less than 0.1 µM on human LSD1(171-852), greater than 10 µM at MAO-B and greater than 10 µM against MAO-A.
Take `O=C(Nc1ccc([C@@H]2C[C@H]2NCC2CC2)cc1)c1c[nH]c2ccccc12` (relative stereo) [Example 127, N-(4-{trans-2-[(cyclopropyl-methyl)amino]cyclo-propyl}phenyl)-1H-indole-3-carboxamide]: the results for the IC50 at human LSD1(171-852), at MAO-B and against MAO-A were 0.1 µM, greater than 10 µM and greater than 10 µM, respectively.
As to `O=C(Nc1ccc([C@@H]2C[C@H]2NCC2CC2)cc1)c1n[nH]c2ccccc12` (relative stereo) [Example 128, N-(4-{trans-2-[(cyclopropyl-methyl)amino]cyclo-propyl}phenyl)-1H-indazole-3-carboxamide], the IC50 on human LSD1(171-852) was less than 0.1 µM; on MAO-B, greater than 10 µM; on MAO-A, 5.3 µM.
On the same counts, the results for `O=C(Nc1ccc([C@@H]2C[C@H]2NCC2CC2)cc1)c1cc2ccccc2o1` (relative stereo) [Example 129, N-(4-{trans-2-[(cyclopropyl-methyl)amino]cyclo-propyl}phenyl)-1-benzofuran-2-carboxamide] are less than 0.1 µM, greater than 10 µM and 8.2 µM.
For `CN1CCN(c2ccc(C(=O)Nc3ccc([C@@H]4C[C@H]4NCC4CC4)cc3)cc2)CC1` (relative stereo) [Example 130, N-(4-{trans-2-[(cyclopropyl-methyl)amino]cyclo-propyl}phenyl)-4-(4-methylpiperazin-1-yl)benzamide], the IC50 at human LSD1(171-852) was less than 0.1 µM; on MAO-B, greater than 10 µM; on MAO-A it was greater than 10 µM.
For `CN1CCN(c2cccc(C(=O)Nc3ccc([C@@H]4C[C@H]4NCC4CC4)cc3)c2)CC1` (relative stereo) [Example 131, N-(4-{trans-2-[(cyclopropyl-methyl)amino]-cyclopropyl}-phenyl)-3-(4-methylpiperazin-l-yl)benzamide], the half-maximal inhibitory concentration (IC50) is less than 0.1 µM at human LSD1(171-852), greater than 10 µM against MAO-B and greater than 10 µM against MAO-A.
Take `O=C(Nc1ccc([C@@H]2C[C@H]2NCC2CC2)cc1)c1ccc(-c2cccnc2)cc1` (relative stereo) [Example 132, N-(4-{trans-2-[(cyclopropyl-methyl)amino]-cyclopropyl}-phenyl)-4-(pyridin-3-yl)benzamide]: the IC50 at human LSD1(171-852) is less than 0.1 µM; on MAO-B it was greater than 10 µM; on MAO-A, 8.3 µM.
On the same counts, the results for `O=C(Nc1ccc([C@@H]2C[C@H]2NCC2CC2)cc1)c1cc(-c2ccccc2)no1` (relative stereo) [Example 133, N-(4-{trans-2-[(cyclopropyl-methyl)amino]-cyclopropyl}-phenyl)-3-phenyl-1,2-oxazole-5-carboxamide] are less than 0.1 µM, greater than 10 µM and greater than 10 µM.

For orientation: IC50 means the point on the concentration scale where inhibition reaches its midpoint.
